Our source for the Ki and Kd values is publication PMC4170518 (Biochemistry, 2013).

For assay [1], the target named is T1, class II fructose 1,6-bisphosphate aldolase (MtFBA) (Mycobacterium tuberculosis, UniProt P9WQA3). As to the kind of experiment: biochemical.
In assay [2] the target is T1, class II fructose 1,6-bisphosphate aldolase (MtFBA). The assay can be described thus: biochemical. Type of assay: binding.

T1 sequence (P9WQA3 whole entry): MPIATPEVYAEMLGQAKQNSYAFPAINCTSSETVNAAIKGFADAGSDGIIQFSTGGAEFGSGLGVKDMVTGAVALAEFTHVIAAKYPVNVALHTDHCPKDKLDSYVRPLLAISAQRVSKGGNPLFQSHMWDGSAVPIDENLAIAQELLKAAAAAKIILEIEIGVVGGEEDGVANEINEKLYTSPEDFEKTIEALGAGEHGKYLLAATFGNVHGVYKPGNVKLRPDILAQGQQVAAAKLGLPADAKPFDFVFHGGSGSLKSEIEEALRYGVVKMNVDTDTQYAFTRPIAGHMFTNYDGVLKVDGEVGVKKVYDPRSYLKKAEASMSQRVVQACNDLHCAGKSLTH

On to `O=C(CO)COP(=O)(O)O` [DHAP, dihydroxyacetone phosphate], for which, in assay [1], the inhibition constant (Ki) (as a rule, a measure of affinity in units of concentration, obtained from inhibition or displacement) is 238 ± 20 µM.
On to `O=C(COP(=O)(O)O)NO` [PGH, phosphoglycolohydroxamate], for which, in assay [2], the Kd (as a rule, the concentration at which binding is half-saturated) is 0.0211 ± 0.0002 µM.
